The experiment deals with SK-BR-3 cancer cells. The experiment in a line: Inhibitory activity against proliferation of SK-BR-3 cancer cells (CellTiter-Glo). The experiment is classed as cell-based. As to conditions: ErbB2-overexpressing SK-BR-3 cells, 120 hours after treatment. As for the experimental part: To evaluate the inhibitory activity of a compound according to the present invention against the proliferation of ErbB2-overexpressing cancer cells, the following experiment were performed.
10% FBS-added McCOY'S 5A was used for SK-BR-3 cancer cells. 20% FBS-added RPMI-1640 was used for BT-474 cancer cells. Transduced Ba/F3 cells were cultured in a RPMI-1640 medium to which 1 μg/ml puromycin (Invitrogen) was added.
48 hours before compound treatment, each type of the SK-BR-3 and BT-474 cells were seeded at 5,000 cells/well in a white clear bottom 96 well plate (Corning). The compound was diluted in dimethyl sulfoxide (SK-BR-3: 3-fold dilution, a total of 12 concentrations, BT-474: […], a total of 12 concentrations) and injected at 1 μl to have the final concentration of 0.2 nM to 5 μM. As for measurement of live cells, 120 hours after treatment with the compound, a CellTiter-Glo luminescent cell-viability reagent (Promega) was used to store the cells at room temperature for 10 minutes, followed by measurement of luminescence using a reader (SynergyNeo, Biotek). Each test was repeated three times.
The result values were calculated as a cell growth rate (%) compared to the control group. A graph was plotted using the GraphPad Prism version 8.3.0 program, and GI50 values were calculated.

A word on the GI50: it is the concentration giving 50% growth inhibition. Regarding `C=CC(=O)Nc1cc(Nc2cc(N3OCCC3c3cccc(-c4cccc(F)c4)c3)ncn2)c(OC)cc1N(C)CCN(C)C` (centres unmarked) [Example 212, N-(2-((2-(dimeth-yl-amino)ethyl)-(methyl)amino)-5-((6-(3-(3′-fluoro-[1,1′-biphenyl]-3-yl)isoxazolidin-2-yl)pyrimidin-4-yl)amino)-4-meth-oxyphenyl)acryl-amide], the GI50 is 50 to 500 nM.

In the case of `C=CC(=O)Nc1cc(Nc2cc(N3OCCC3c3cccc(-c4ccc(C)s4)c3)ncn2)c(OC)cc1N1CCN(C)CC1` (centres unmarked) [Example 214, N-(4-methoxy-2-(4-methylpiper-azin-1-yl)-5-((6-(3-(3-(5-methyl-thiophen-2-yl)-phenyl)isoxazol-idin-2-yl)pyrim-idin-4-yl)amino)-phenyl)acrylamide], the GI50 (Homo sapiens, SK-BR-3, 120 h) is 50 to 500 nM. Still for that read-out and setting: to `C=CC(=O)Nc1cc(Nc2cc(N3OCC[C@@H]3c3cccc(-c4ccccc4)c3)ncn2)c(OC)cc1N1CCN(C(C)=O)CC1` [Example 215, (R)-N-(5-((6-(3-([1,1′-biphenyl]-3-yl)isoxazolidin-2-yl)pyrimidin-4-yl)-amino)-2-(4-acetyl-piperazin-1-yl)-4-methoxyphenyl)-acrylamide] belongs less than 50 nM; to `C=CC(=O)Nc1cc(Nc2cc(N3OCC[C@@H]3c3cc(F)cc(Oc4ccn(C)n4)c3)ncn2)c(OC)cc1N1CCN(C)CC1` [Example 217, (R)-N-(5-((6-(3-(3-fluoro-5-((1-methyl-1H-pyr-azol-3-yl)oxy)-phenyl)isoxazol-idin-2-yl)pyrim-idin-4-yl)amino)-4-methoxy-2-(4-methylpiperazin-1-yl)phenyl)-acrylamide], 50 to 500 nM. For the compound `C=CC(=O)Nc1cc(Nc2cc(N3OCC[C@@H]3c3cc(F)cc(Oc4ccn(C)n4)c3)ncn2)c(OC)cc1N(C)CCN(C)C` [Example 218, (R)-N-(2-((2-(dimethylamino)-ethyl)(methyl)-amino)-5-((6-(3-(3-fluoro-5-((1-methyl-1H-pyr-azol-3-yl)oxy)-phenyl)isoxazol-idin-2-yl)pyrim-idin-4-yl)amino)-4-methoxyphen-yl)acrylamide], the GI50 (Homo sapiens, SK-BR-3, 120 h) is less than 50 nM. With `C=CC(=O)Nc1cc(Nc2cc(N3OCC[C@@H]3c3cc(F)cc(Oc4cccc(F)c4)c3)ncn2)c(OC)cc1N1CCN(CC)CC1` [Example 220, (R)-N-(2-(4-ethyl-piperazin-1-yl)-5-((6-(3-(3-fluoro-5-(3-fluorophenoxy)-phenyl)isoxazol-idin-2-yl)pyrim-idin-4-yl)amino)-4-methoxyphen-yl)acrylamide], the GI50 (Homo sapiens, SK-BR-3, 120 h) is less than 50 nM. On the same count and under the same terms, next, `C=CC(=O)Nc1cc(Nc2cc(N3OCC[C@@H]3c3cc(F)cc(Oc4cccc(F)c4)c3)ncn2)c(OC)cc1N1CCOCC1` [Example 222, (R)-N-(5-((6-(3-(3-fluoro-5-(3-fluorophenoxy)-phenyl)isoxazol-idin-2-yl)pyrim-idin-4-yl)amino)-4-methoxy-2-morpholinophen-yl)acrylamide]: less than 50 nM. Same read-out and setting: to `C=CC(=O)Nc1cc(Nc2cc(N3OCC[C@@H]3c3cccc(Oc4cc(F)cc(F)c4)c3)ncn2)c(OC)cc1N(C)CCN(C)C` [Example 226, (R)-N-(5-((6-(3-(3-(3,5-difluoro-phenoxy)phenyl)-isoxazolidin-2-yl)-pyrimidin-4-yl)-amino)-2-((2-(dimethylamino)-ethyl)(methyl)-amino)-4-methoxy-phenyl)acrylamide] belongs less than 50 nM; to `C=CC(=O)Nc1cc(Nc2cc(N3OCC[C@H]3c3cccc(OCc4cccc(F)c4)c3)ncn2)c(OC)cc1N(C)CCN(C)C` [Example 229, (S)-N-(2-((2-(dimethylamino)-ethyl)(methyl)-amino)-5-((6-(3-(3-((3-fluorobenz-yl)oxy)phenyl)-isoxazolidin-2-yl)-pyrimidin-4-yl)-amino)-4-methoxy-phenyl)acrylamide], 50 to 500 nM; to `C=CC(=O)Nc1cc(Nc2cc(N3OCC[C@@H]3c3cccc(-c4ccccc4)c3)ncn2)c(OC)cc1N1CCN(CCC)CC1` [Example 230, (R)-N-(5-((6-(3-([1,1′-biphenyl]-3-yl)isoxazolidin-2-yl)pyrimidin-4-yl)-amino)-4-methoxy-2-(4-propylpiper-azin-1-yl)phenyl)-acrylamide], less than 50 nM.

`C=CC(=O)Nc1cc(Nc2cc(N3OCCC3c3cccc(-c4cnn(C)c4)c3)ncn2)c(OC)cc1N1CCN(C)CC1` (centres unmarked) [Example 232, N-(4-methoxy-5-((6-(3-(3-(1-meth-yl-1H-pyrazol-4-yl)phenyl)isoxazol-idin-2-yl)pyrim-idin-4-yl)amino)-2-(4-methylpiper-azin-1-yl)phenyl)-acrylamide]: the GI50 (Homo sapiens, SK-BR-3, 120 h) was less than 50 nM. As for `C=CC(=O)Nc1cc(Nc2cc(N3OCCC3c3cccc(-c4cnn(C)c4)c3)ncn2)c(OC)cc1N1CCC(N2CCN(C3CC3)CC2)CC1` (centres unmarked) [Example 234, N-(2-(4-(4-cyclo-propylpiperazin-1-yl)piperidin-1-yl)-4-methoxy-5-((6-(3-(3-(1-methyl-1H-pyrazol-4-yl)-phenyl)isoxazol-idin-2-yl)pyrim-idin-4-yl)amino)-phenyl)acrylamide], under “Homo sapiens, SK-BR-3, 120 h”, the GI50 is less than 50 nM. As for `C=CC(=O)Nc1cc(Nc2cc(N3OCCC3c3cccc(-c4cnc5cccnn45)c3)ncn2)c(OC)cc1N(C)CCN(C)C` (centres unmarked) [Example 235, N-(2-((2-(dimeth-ylamino)ethyl)-(methyl)amino)-5-((6-(3-(3-(imidazo[1,2-b]-pyridazin-3-yl)-phenyl)isoxazol-idin-2-yl)pyrim-idin-4-yl)amino)-4-methoxyphen-yl)acrylamide], the GI50 (Homo sapiens, SK-BR-3, 120 h) is less than 50 nM. Still for that read-out and setting: next, `C=CC(=O)Nc1cc(Nc2cc(N3OCCC3c3cccc(-c4cccc(C(F)(F)F)c4)c3)ncn2)c(OC)cc1N(C)CCN(C)C` (centres unmarked) [Example 236, N-(2-((2-(dimeth-ylamino)ethyl)-(methyl)amino)-4-methoxy-5-((6-(3-(3′-(trifluorometh-yl)-[1,1′-biphenyl]-3-yl)isoxazolidin-2-yl)pyrimidin-4-yl)amino)phenyl)-acrylamide]: less than 50 nM. On the same count and under the same terms, next, `C=CC(=O)Nc1cc(Nc2cc(N3OCCC3c3cccc(-c4cccc(C(F)(F)F)c4)c3)ncn2)c(OC)cc1N1CCN(C)CC1` (centres unmarked) [Example 237]: 50 to 500 nM; `C=CC(=O)Nc1cc(Nc2cc(N3OCCC3c3cccc(-c4nccs4)c3)ncn2)c(OC)cc1N(C)CCN(C)C` (centres unmarked) [Example 238, N-(2-((2-(dimeth-ylamino)ethyl)-(methyl)amino)-4-methoxy-5-((6-(3-(3-(thiazol-2-yl)-phenyl)isoxazol-idin-2-yl)pyrim-idin-4-yl)amino)-phenyl)acrylamide]: less than 50 nM.

As to `C=CC(=O)Nc1cc(Nc2cc(N3OCC[C@@H]3c3cc(F)cc(-c4cccc(N(C)C)c4)c3)ncn2)c(OC)cc1N(C)CCN(C)C` [Example 239], the GI50 (Homo sapiens, SK-BR-3, 120 h) is less than 50 nM. Same read-out and setting: to `C=CC(=O)Nc1cc(Nc2cc(N3OCC[C@@H]3c3cc(F)cc(-c4ncnn4C)c3)ncn2)c(OC)cc1N(C)CCN(C)C` [Example 240, (R)-N-(2-((2-(dimethylamino)-ethyl)(methyl)-amino)-5-((6-(3-(3-fluoro-5-(1-methyl-1H-1,2,4-triazol-5-yl)phen-yl)-isoxazolidin-2-yl)pyrimidin-4-yl)-amino)-4-methoxy-phen-yl)acrylamide] belongs less than 50 nM; to `C=CC(=O)Nc1cc(Nc2cc(N3OCC[C@H]3c3cccc(-c4cccc(F)c4)c3)ncn2)c(OC)cc1N1CCN(C)CC1` [Example 241, (S)-N-(5-((6-(3-(3′-fluoro-[1,1′-biphenyl]-3-yl)-isoxazolidin-2-yl)-pyrimidin-4-yl)-amino)-4-methoxy-2-(4-methylpiper-azin-1-yl)phenyl)-acrylamide], 500 to 5000 nM.

As for `C=CC(=O)Nc1cc(Nc2cc(N3OCC[C@@H]3c3cc(F)cc(-c4cccs4)c3)ncn2)c(OC)cc1N(C)CCN(C)C` [Example 243, (R)-N-(2-((2-(dimethylamino)-ethyl)(methyl)-amino)-5-((6-(3-(3-fluoro-5-(thio-phen-2-yl)phenyl)-isoxazolidin-2-yl)-pyrimidin-4-yl)-amino)-4-methoxy-phenyl)acrylamide], under “Homo sapiens, SK-BR-3, 120 h”, the concentration for 50% growth inhibition (GI50) was less than 50 nM. On the same count and under the same terms, next, `C=CC(=O)Nc1cc(Nc2cc(N3OCC[C@@H]3c3ccc(F)c(OCc4cccc(F)c4)c3)ncn2)c(OC)cc1N1CCN(C)CC1` [Example 244, (R)-N-(5-((6-(3-(4-fluoro-3-((3-fluorobenzyl)oxy)-phenyl)isoxazol-idin-2-yl)pyrim-idin-4-yl)amino)-4-methoxy-2-(4-methylpiperazin-1-yl)phenyl)-acrylamide]: less than 50 nM; `C=CC(=O)Nc1cc(Nc2cc(N3OCC[C@@H]3c3cccc(C(=O)NC(C)C)c3)ncn2)c(OC)cc1N1CCN(C)CC1` [Example 246, (R)-3-(2-(6-((5-acrylamido-2-methoxy-4-(4-methylpiperazin-1-yl)phenyl)-amino)pyrimidin-4-yl)isoxazolidin-3-yl)-N-isopropyl-benzamide]: less than 50 nM.

Regarding `C=CC(=O)Nc1cc(Nc2cc(N3OCC[C@@H]3c3cccc(C(=O)NC(C)C)c3)ncn2)c(OC)cc1N(C)CCN(C)C` [Example 247, (R)-3-(2-(6-((5-acrylamido-4-((2-(dimethylamino)-ethyl)(methyl)-amino)-2-methoxy-phenyl)amino)pyr-imidin-4-yl)isox-azolidin-3-yl)-N-isopropylbenzamide], the GI50 (Homo sapiens, SK-BR-3, 120 h) is less than 50 nM.

The values above are taken from patent US20240262815A1, “HETEROARYL DERIVATIVE, METHOD FOR PREPARING SAME, AND PHARMACEUTICAL COMPOSITION COMPRISING SAME AS ACTIVE INGREDIENT” (VORONOI INC., priority 2021, published 2024).
